From patent publication US12037583B2, “Compositions and methods for immunooncology” (Novartis AG, priority 2015, dated 2024) come the findings set out here.

For one series, the system named is CD3E. The experiment in a line: NGS editing and frameshift edit of CD3E by dgRNA in HEK-293(Cas9) cells. The note with it: dgRNA to CD3E in HEK-293(Cas9) cells. The series is classed as cell-based, human. An excerpt:
Transfection of Cas9GFP-expressing HEK293 cells (HEK-293_Cas9GFP) was used for primary screening of target specific crRNAs. In this example, target specific crRNAs were designed and selected for primary screening using defined criteria including in silico off-target detection, e.g., as described herein. Selected crRNAs were chemically synthesized and delivered in a 96 well format. HEK-293-Cas9GFP cells were transfected with target crRNAs comprising a flagpole region of SEQ ID NO: 6607 in a 1:1 ratio with stock trRNA of SEQ ID NO: 6660. The transfection was mediated using lipofection technology according to manufacturer's protocol (DharmaFECT Duo, GE LifeSciences; or RNAiMax, LifeTechnologies). Transfected cells were lysed 24 h following lipofection and editing (e.g., cleavage) was detected within lysates with the T7E1 assay and/or next generation sequencing (NGS; below).
PCR primers were first designed around the target site, and the genomic area of interest PCR amplified. Additional PCR was performed according to manufacturer's protocols (Illumina) to add the necessary chemistry for sequencing. The amplicons were then sequenced on an Illumina MiSeq instrument. The reads were then aligned to the human reference genome (e.g., hg38) after eliminating those having low quality scores. From the resulting files containing the reads mapped to the reference genome (BAM files), reads which overlap the target region of interest were selected and the number of wild type reads versus the number of reads which contain an insertion or deletion was calculated. The editing percentage was then defined as the total number of reads with insertions or deletions over the total number of reads, including wild type. To determine the pattern of insertions and/or deletions that resulted from the edit, the aligned reads with indels were selected and the number of a reads with a given indel were summed.
dgRNA molecules comprising the indicated targeting domain were chemically synthesized, and editing assessed in HEK-293 cells by NGS as described in Example 1. […] Several gRNA molecules were able to edit more than 50% of the cells, including producing a frameshift mutation in more than 50% of the cells.

The subject of series [1] is CIITA. Nature of the series: NGS editing and frameshift edit of CIITA by dgRNA in HEK293 cells expressing Cas9. It counts as cell-based, human. The note with it: HEK293 cells stably expressing Cas9, dgRNA to CIITA; for Avg. % Edit: N = 3; for Avg. % FS: frameshift edit.
Method: Editing of CIITA with dgRNAs targeted to the CIITA gene were assayed in HEK293 cells engineered to express Cas9, as described above in Example 1.
The subject of series [2] is CIITA. Nature of the series: NGS editing and frameshift edit of CIITA in CD3+ primary human T cells (RNP). The series is classed as cell-based. The note with it: dgRNA targeting CIITA delivered as RNP to CD3+ T cells.
From the text: The frequency of insertions or deletions is indicated (% indels) and the percentage of these edits that result in frameshifting of the coding sequence is shown (% frameshift edits).
PBMC were isolated from human blood (Hemacare) by using centrifugation method using Ficoll. […] These cells were aliquoted and frozen. These frozen cell aliquots were then thawed and activated using CD3/CD28 beads (DynaBeads Invitrogen Cat #111.41D) at bead to cell ratio of 3:1. On day 2 or day 3 after bead activation, 200,000 cells were removed from culture for electroporation. […] Next 1 μL of 100 μM crRNA was added, mixed and incubated for 10 min at 37° C. If more than one RNP was added during the electroporation step, each RNP with a crRNA targeting a different gene was assembled separately using the above method, then combined together with the addition of Cas9 buffer in order to obtain different RNP final concentrations for different conditions. For “triple editing”, i.e. simultaneous addition of 3 RNPs targeting different genes, details of RNP quantities are provided in the figures. The assembled RNPs were then mixed with 200,000 cells in 10 ul of T Buffer (neon transfection system 10 ul Kit). Electroporation was performed by Neon electroporator using Neon® Transfection System 10 μL Kit (MPK1096) at 1600V, 10 ms, 3 pulses. […] To evaluate the editing frequency and sequence changes resulting from gene editing in the above prepared T cells, genomic DNA was isolated and subjected to sequencing. Briefly, frozen cell pellets were thawed and processed using DNeasy Blood & Tissue Kit (Qiagen, 69506) to isolate genomic DNA. Eluted DNA was used to run PCR using Titanium Taq PCR kit (Clontech Laboratories, 639211) and primers in Table 27.
PCR product was purified using QIAquick PCR Purification Kit (Qiagen, 28104). […] PCR amplicons were subjected to standard Nextera NGS library prep (Illumina) and sequenced with paired-end reads on an Illumina MiSeq sequencer.
The next series has as its system TRAC. Nature of the series: Editing of TRAC by dgRNAs in HEK cells stably expressing Cas9 (NGS). The note with it: dgRNA delivered to HEK cells stably expressing Cas9, target TRAC, mean of at least 3 experiments. The series is classed as cell-based, human.
The next series has as its system TRAC locus. Nature of the series: Genomic editing of the TRAC locus in primary human CD3+ T cells by RNP electroporation (NGS: % indels, % frameshift edits, indel pattern).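 For all read-outs here: total edit is the insertion or deletion frequency at TRAC, and the frameshift value is the share of those indels that shift the coding frame.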 It counts as cell-based. The settings on record: dgRNA/Cas9 RNP by electroporation, target TRAC; for mean FS edit (%): frameshift edits in primary human CD3+ T cells; for mean total % edit: primary human CD3+ T cells, mean of at least 3 experiments.

From the text for TRAC locus: FIG. 12: Mean (n≥3) editing of CRISPR systems with dgRNAs as indicated to TRAC in HEK cells (stably expressing Cas9) or primary human CD3+ T cells (delivery of dgRNA:Cas9 RNP by electroporation).
FIG. 33C: Genomic editing of the TRAC locus resulting from human primary T cell electroporation with RNP containing the indicated gRNA targeting the TRAC locus is shown. The frequency of insertions or deletions is indicated (% indels) and the percentage of these edits that result in frameshifting of the coding sequence is shown (% frameshift edits).
Data for each experiment are the average from triplicate PCR products.

As to “CR002230 (guide AGGCCUCUCUACUUCCUGUG; targeting domain within dual guide RNA, chemistry not given here, further chemistry not given here; listed as Homo sapiens)”, in the series on CD3E, the “Avg. % Edit (any indel)” value is on record as 20.64% and the “Avg. Frameshift %” value is reported as 20.10%.

For “CR002231 (guide GGCCUCUCUACUUCCUGUGU; targeting domain within dual guide RNA, chemistry not given here, further chemistry not given here; listed as Homo sapiens)”, in the series with CD3E, the “Avg. % Edit (any indel)” value came out at 13.83% and the “Avg. Frameshift %” value came out at 12.37%.

As for “CR002976 (guide AUAGAAGUGGUAGAGGCACA; chemistry not given here; listed as Homo sapiens)”, in the series on CIITA [1], the “Avg. % Edit” value was 45.36% and the “Avg. % FS” value turned out to be 37.66%. Besides, in the series with CIITA [2], the Editing % was 4.0% and the “Frameshift Edit %” value is reported as 3.6%.

Turning to “CR002978 (guide UCUGGUCAUAGAAGUGGUAG; chemistry not given here; listed as Homo sapiens)”, in the series on CIITA [1], the “Avg. % Edit” value is on record as 38.34% and the “Avg. % FS” value was 34.11%. In the series with CIITA [2], the Editing % was determined as 4.7% and the “Frameshift Edit %” value came to 2.7%.

“CR002980 (guide GGUCCAUCUGGUCAUAGAAG; chemistry not given here; listed as Homo sapiens)”: in the series with CIITA [1], the “Avg. % Edit” value was determined as 50.30% and the “Avg. % FS” value was found to be 42.41%. Besides, in the series with CIITA [2], the Editing % was 6.1% and the “Frameshift Edit %” value amounted to 3.6%.

Consider “CR002992 (guide UGGAAGGUGAUGAAGAGACC; chemistry not given here; listed as Homo sapiens)”, for which, in the series on CIITA [1], the “Avg. % Edit” value turned out to be 46.54% and the “Avg. % FS” value was found to be 31.23%. In the series on CIITA [2], the Editing % is recorded as 16.0% and the “Frameshift Edit %” value was 11.6%.

With “CR002993: dgRNA targeting domain to CIITA (guide GGAAGGUGAUGAAGAGACCA; chemistry not given here; listed as Homo sapiens)”, in the series on CIITA [1], the “Avg. % Edit” value was found to be 60.16% and the “Avg. % FS” value is 48.86%. Besides, in the series on CIITA [2], the Editing % is given as 33.8% and the “Frameshift Edit %” value is listed as 27.2%.

On to “CR002994 (guide AGGUGAUGAAGAGACCAGGG; chemistry not given here; listed as Homo sapiens)”, for which, in the series with CIITA [1], the “Avg. % Edit” value worked out at 42.35% and the “Avg. % FS” value was found to be 31.32%. In the series on CIITA [2], the Editing % came to 22.0% and the “Frameshift Edit %” value is 18.1%.

As to “CR002995 (guide GAUAUUGGCAUAAGCCUCCC; chemistry not given here; listed as Homo sapiens)”, in the series with CIITA [1], the “Avg. % Edit” value stood at 52.74% and the “Avg. % FS” value was found to be 43.64%. In the series with CIITA [2], the Editing % came out at 3.1% and the “Frameshift Edit %” value was found to be 2.5%.

In the case of “CR003001 (guide UUCCAGGACUCCCAGCUGGA; chemistry not given here; listed as Homo sapiens)”, in the series with CIITA [1], the “Avg. % Edit” value was 47.64% and the “Avg. % FS” value was 43.30%. Further, in the series on CIITA [2], the Editing % amounted to 36.3% and the “Frameshift Edit %” value is on record as 32.0%.

For “CR003007: dgRNA targeting domain to CIITA (guide AUAGGACCAGAUGAAGUGAU; chemistry not given here; listed as Homo sapiens)”, in the series on CIITA [1], the “Avg. % Edit” value is recorded as 43.64% and the “Avg. % FS” value amounted to 32.22%. In the series with CIITA [2], the Editing % is recorded as 31.6% and the “Frameshift Edit %” value was determined as 28.8%.

For the substance “CR003013 (guide UGCCGGAAGCUCCUCUGGGA; chemistry not given here; listed as Homo sapiens)”, in the series with CIITA [1], the “Avg. % Edit” value is reported as 37.75% and the “Avg. % FS” value was 29.94%. In the series on CIITA [2], the Editing % worked out at 11.5% and the “Frameshift Edit %” value is recorded as 9.0%.

As to “UAGCAGCUUUCACCUCCUUG (chemistry not given here; listed as Homo sapiens) [CR001010]”, the mean % edit in the series on TRAC came out at 48.3%. Also, in the series on TRAC locus, the “mean FS edit (%)” value is on record as 18.6% and the “mean total % edit” value is 21.2%.

“UAGGCAGACAGACUUGUCAC (chemistry not given here; listed as Homo sapiens) [CR000963]” had a mean % edit with TRAC of 68.4%. For the same substance, in the series with TRAC locus, the “mean FS edit (%)” value turned out to be 25.3% and the “mean total % edit” value came to 32.5%.

“UAUUCUUGUGCUCUCAGAGA (chemistry not given here; listed as Homo sapiens) [CR000952]” yielded a mean % edit in the series with TRAC of 57.9%. For the same substance, in the series on TRAC locus, the “mean FS edit (%)” value came out at 5.6% and the “mean total % edit” value was determined as 5.8%.

Take “UCAAGGCCCCUCACCUCAGC (chemistry not given here; listed as Homo sapiens) [CR000995]”: the mean % edit in the series with TRAC amounted to 23.2%. Also, in the series on TRAC locus, the “mean FS edit (%)” value is 2.5% and the “mean total % edit” value was determined as 1.9%.

Regarding “UCCUCCUCCUGAAAGUGGCC (chemistry not given here; listed as Homo sapiens) [CR000988]”, in the series with TRAC, the mean % edit is given as 41.9%. Also, in the series on TRAC locus, the “mean FS edit (%)” value is reported as 17.4% and the “mean total % edit” value turned out to be 22.3%.

Consider “UCUGUUGCUUAUAAGCUUCU (chemistry not given here; listed as Homo sapiens) [CR000946]”, for which the mean % edit in the series with TRAC was 65.9%. Further, in the series with TRAC locus, the “mean FS edit (%)” value came out at 9.2% and the “mean total % edit” value is given as 9.8%.

Consider “UGCUCACAGGUCCCUGCUGC (chemistry not given here; listed as Homo sapiens) [CR000925]”, for which, in the series with TRAC, the mean % edit is given as 56.9%. Besides, in the series with TRAC locus, the “mean FS edit (%)” value is on record as 12.3% and the “mean total % edit” value is 19.1%.

For “UGCUCAUGACGCUGCGGCUG (chemistry not given here; listed as Homo sapiens) [CR000994]”, the mean % edit in the series on TRAC was determined as 46.9%. In the series with TRAC locus, the “mean FS edit (%)” value worked out at 10.8% and the “mean total % edit” value turned out to be 21.5%.

In the case of “UGGUGUCAUAUGUGCAGCUC (chemistry not given here; listed as Homo sapiens) [CR000939]”, the mean % edit in the series on TRAC turned out to be 27.7%. Moreover, in the series on TRAC locus, the “mean FS edit (%)” value is recorded as 12.1% and the “mean total % edit” value worked out at 13.5%.

In the series with TRAC, “UUCAAAACCUGUCAGUGAUU (chemistry not given here; listed as Homo sapiens) [CR000983]” displayed a mean % edit of 59.8%. Also, in the series with TRAC locus, the “mean FS edit (%)” value is 18.2% and the “mean total % edit” value is reported as 26.6%.

For “UUGCCGGGGGGGCACAGAGG (chemistry not given here; listed as Homo sapiens) [CR001013]”, the mean % edit in the series with TRAC was 29.7%. For the same substance, in the series with TRAC locus, the “mean FS edit (%)” value was found to be 17.6% and the “mean total % edit” value stood at 19.6%.

Substance “UUUCAAAACCUGUCAGUGAU (chemistry not given here; listed as Homo sapiens) [CR000982]” returned a mean % edit in the series on TRAC of 48.1%. For the same substance, in the series with TRAC locus, the “mean FS edit (%)” value stood at 23.2% and the “mean total % edit” value worked out at 28.5%.
